According to patent publication US20060171966A1, “Variants of vibrio cholerae 01 biotype e1 tor with attributes of classical biotype” (priority 2002, published 2006):

What was measured:
Assay type in all cases: cell-based, Vibrio cholerae O1
[1] = tested on: V. cholerae O1 Matlab III; experiment: Sensitivity to polymyxin B (50U), Matlab III; conditions: 21 strains
Source text: (§1) […]. The basis of a retrospective examination of these strains was their unusual response to polymyxin B (50U), chicken cell agglutination (CCA), Voges-Proskauer (VP) reaction, and sensitivity to group IV and V phages, all of which are phenotypic traits commonly used to differentiate between the classical and El Tor biotypes. The 24 strains were reexamined for the above phenotypic characteristics by standard procedures.
(§2) We examined the commonly used phenotypic traits used to distinguish between the El Tor and classical biotypes of V. cholerae and differentiated the 24 strains into three types (Table 1), which we classified as Matlab types I, II, and III. Matlab type I included two strains belonging to the Inaba serotype that were resistant to both the El Tor-specific group IV and the classical biotype specific group V phages, negative by the CCA and VP tests (both are classical traits), and resistant to polymyxin B (an El Tor trait).

V. cholerae O1 Matlab II = experiment: Sensitivity to polymyxin B (50U), Matlab II; conditions: 1 strain
Source text: as §1, §2

V. cholerae O1 Matlab I = experiment: Sensitivity to polymyxin B (50U), Matlab I; conditions: 2 strains
Source text: as §1, §2

With polymyxin B the “Sensitivity to polymyxin B (50U)” value [1] was “typical of the El Tor biotype”, the “Sensitivity to polymyxin B (50U)” value (V. cholerae O1 Matlab II) was “sensitive” and the “Sensitivity to polymyxin B (50U)” value (V. cholerae O1 Matlab I) was “resistant”.
